# Results from the supplement of paper PMC12350171.
# What was measured:
# Bacteroides fragilis NT = test: IC25 growth inhibition; higher = less potent
# Method in brief: (§1)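 Overnight monocultures grown in mGAM were moved into pre-reduced plates containing twofold drug dilutions, at a starting OD578 of 0.01 with 1% DMSO (or water). Plates were kept anaerobic and read hourly at OD578 in a plate reader, with at least three biological replicates. For each concentration, the median area under the growth curve was made monotonic, and IC25 was the lowest concentration whose median fell below a cutoff, reported as a tested interval. That cutoff was 0.75.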
# [1] = tested on: Bacteroides thetaiotaomicron; test: IC25 growth inhibition; higher = less potent
# Method in brief: as §1
# Bacteroides uniformis = test: IC25 growth inhibition; higher = less potent
# Method in brief: as §1
# Bacteroides vulgatus = test: IC25 growth inhibition; higher = less potent
# Method in brief: as §1
# Clostridium bolteae = test: IC25 growth inhibition; higher = less potent
# Method in brief: as §1
# Clostridium perfringens = test: IC25 growth inhibition; higher = less potent
# Method in brief: as §1
# Clostridium ramosum = test: IC25 growth inhibition; higher = less potent
# Method in brief: as §1
# [2] = tested on: Clostridium saccharolyticum; test: IC25 growth inhibition; higher = less potent
# Method in brief: as §1
# Collinsella aerofaciens = test: IC25 growth inhibition; higher = less potent
# Method in brief: as §1
# Coprococcus comes = test: IC25 growth inhibition; higher = less potent
# Method in brief: as §1
# Dorea formicigenerans = test: IC25 growth inhibition; higher = less potent
# Method in brief: as §1
# Escherichia coli ED1a = test: IC25 growth inhibition; higher = less potent
# Method in brief: as §1
# Eubacterium rectale = test: IC25 growth inhibition; higher = less potent
# Method in brief: as §1
# [3] = tested on: Fusobacterium nucleatum subsp. Nucleatum; test: IC25 growth inhibition; higher = less potent
# Method in brief: as §1
# Parabacteroides merdae = test: IC25 growth inhibition; higher = less potent
# Method in brief: as §1
# Roseburia intestinalis = test: IC25 growth inhibition; higher = less potent
# Method in brief: as §1
# Ruminococcus gnavus = test: IC25 growth inhibition; higher = less potent
# Method in brief: as §1
# [4] = tested on: Salmonella enterica typhimurium; test: IC25 growth inhibition; higher = less potent
# Method in brief: as §1
# Shigella flexneri = test: IC25 growth inhibition; higher = less potent
# Method in brief: as §1
# [5] = tested on: Streptococcus parasanguinis; test: IC25 growth inhibition; higher = less potent
# Method in brief: as §1
# Streptococcus salivarius = test: IC25 growth inhibition; higher = less potent
# Method in brief: as §1
# Vibrio cholerae = test: IC25 growth inhibition; higher = less potent
# Method in brief: as §1
# [6] = tested on: Yersinia enterocolitica WA-314; test: IC25 growth inhibition; higher = less potent
# Method in brief: as §1
# [7] = tested on: Yersinia pseudotuberculosis; test: IC25 growth inhibition; higher = less potent
# Method in brief: as §1
# [8] = tested on: Com21 synthetic gut community; test: community biomass OD578 after 24 h drug treatment relative to untreated (fraction of untreated control); higher = more community growth; conditions: community: Com21 (Com20 + E. coli ED1a)
# Description: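 Com21 (Com20 plus E. coli ED1a) was treated with drug for 24 h under anaerobic conditions in mGAM. Community OD578 was then measured and normalised to untreated Com21; mean of 3 biological replicates.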
# [9] = drug pretreatment concentration 2.5 µM
# [10] = drug pretreatment concentration 5 µM
# [11] = drug pretreatment concentration 10 µM
# [12] = drug pretreatment concentration 20 µM
# [13] = drug pretreatment concentration 40 µM
# [14] = drug pretreatment concentration 80 µM
# [15] = drug pretreatment concentration 160 µM
# 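For IC25 growth inhibition in this document: lowest concentration where monotonic median growth AUC falls below 0.75 of drug-free control.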
Structure (SMILES),IC25 growth inhibition (Bacteroides fragilis NT) [µM],IC25 growth inhibition [1] [µM],IC25 growth inhibition (Bacteroides uniformis) [µM],IC25 growth inhibition (Bacteroides vulgatus) [µM],IC25 growth inhibition (Clostridium bolteae) [µM],IC25 growth inhibition (Clostridium perfringens) [µM],IC25 growth inhibition (Clostridium ramosum) [µM],IC25 growth inhibition [2] [µM],IC25 growth inhibition (Collinsella aerofaciens) [µM],IC25 growth inhibition (Coprococcus comes) [µM],IC25 growth inhibition (Dorea formicigenerans) [µM],IC25 growth inhibition (Escherichia coli ED1a) [µM],IC25 growth inhibition (Eubacterium rectale) [µM],IC25 growth inhibition [3] [µM],IC25 growth inhibition (Parabacteroides merdae) [µM],IC25 growth inhibition (Roseburia intestinalis) [µM],IC25 growth inhibition (Ruminococcus gnavus) [µM],IC25 growth inhibition [4] [µM],IC25 growth inhibition (Shigella flexneri) [µM],IC25 growth inhibition [5] [µM],IC25 growth inhibition (Streptococcus salivarius) [µM],IC25 growth inhibition (Vibrio cholerae) [µM],IC25 growth inhibition [6] [µM],IC25 growth inhibition [7] [µM],"community biomass OD578 [8, 9]","community biomass OD578 [8, 10]","community biomass OD578 [8, 11]","community biomass OD578 [8, 12]","community biomass OD578 [8, 13]","community biomass OD578 [8, 14]","community biomass OD578 [8, 15]"
Clc1ccccc1C(c1ccccc1)(c1ccccc1)n1ccnc1 [Clotrimazole],≤ 80,≤ 80,≤ 80,≤ 80,≤ 80,> 80,≤ 20,≤ 40,≤ 40,≤ 5,≤ 10,> 40,≤ 10,> 40,≤ 40,≤ 10,≤ 20,> 80,> 80,> 80,> 80,> 80,> 80,> 20,0.969,0.989,1.03,1,0.976,–,–
CC(=O)Oc1cccc2c1C(=O)c1c(OC(C)=O)cc(C(=O)O)cc1C2=O [Diacerein],≤ 2.5,≤ 2.5,≤ 5,≤ 2.5,≤ 2.5,≤ 20,≤ 10,≤ 2.5,≤ 2.5,≤ 20,< 1.25,> 160,< 1.25,≤ 10,< 1.25,< 1.25,≤ 10,> 160,> 160,≤ 10,≤ 10,≤ 40,> 160,≤ 160,–,–,0.936,0.913,0.728,0.337,0.284
O=c1oc2ccccc2c(O)c1Cc1c(O)c2ccccc2oc1=O [Dicumarol],≤ 20,≤ 80,≤ 20,≤ 20,> 80,≤ 20,≤ 40,≤ 40,> 80,> 80,> 80,> 40,> 80,≤ 80,≤ 80,> 80,≤ 80,> 80,> 80,≤ 10,≤ 20,≤ 80,> 80,> 80,0.966,0.965,0.958,0.956,0.962,–,–
C/C=C(/C(=C/C)c1ccc(O)cc1)c1ccc(O)cc1 [Dienestrol],≤ 10,≤ 20,≤ 40,≤ 40,> 40,≤ 20,≤ 40,≤ 40,> 40,≤ 10,≤ 10,> 40,≤ 20,> 40,≤ 40,≤ 40,≤ 5,> 40,> 40,> 40,≤ 40,≤ 40,> 40,> 40,0.981,1.03,0.997,0.972,0.894,–,–
C[C@]12CCC3=C4CCC(=O)C=C4CC[C@H]3[C@@H]1CC[C@@]2(O)CC#N [Dienogest],> 80,> 80,> 80,> 80,> 80,> 80,> 80,> 80,> 80,> 80,> 80,> 80,> 80,> 80,> 80,> 80,> 80,> 80,> 80,> 80,> 80,> 80,> 80,> 80,–,0.994,0.987,1.01,0.995,0.975,–
COc1cccc2c1C(=O)c1c(O)c3c(c(O)c1C2=O)C[C@@](O)(C(=O)CO)C[C@@H]3O[C@H]1C[C@H](N)[C@H](O)[C@H](C)O1 [Doxorubicin],> 160,> 160,> 160,> 160,≤ 20,≤ 40,≤ 40,≤ 20,≤ 10,≤ 40,≤ 20,> 160,≤ 80,> 160,> 160,≤ 40,≤ 160,> 160,> 160,≤ 5,≤ 10,> 160,> 160,> 160,–,–,0.978,0.949,0.918,0.881,0.907
C[C@H]1c2cccc(O)c2C(=O)C2=C(O)[C@]3(O)C(=O)C(C(N)=O)=C(O)[C@@H](N(C)C)[C@@H]3[C@@H](O)[C@@H]21 [Doxycycline],< 1.25,< 1.25,< 1.25,< 1.25,< 1.25,< 1.25,< 1.25,< 1.25,< 1.25,≤ 40,< 1.25,< 1.25,< 1.25,< 1.25,≤ 40,< 1.25,≤ 40,> 160,≤ 40,< 1.25,≤ 40,< 1.25,≤ 40,≤ 40,–,–,0.062,0.06,0.064,0.065,0.064
CN[C@H](CC(C)C)C(=O)N[C@H]1C(=O)N[C@@H](CC(N)=O)C(=O)N[C@H]2C(=O)N[C@H]3C(=O)N[C@H](C(=O)N[C@H](C(=O)O)c4cc(O)cc(O)c4-c4cc3ccc4O)[C@H](O)c3ccc(c(Cl)c3)Oc3cc2cc(c3O[C@@H]2O[C@H](CO)[C@@H](O)[C@H](O)[C@H]2O[C@H]2C[C@](C)(N)[C@H](O)[C@H](C)O2)Oc2ccc(cc2Cl)[C@H]1O [Vancomycin],≤ 10,≤ 40,≤ 20,≤ 2.5,< 1.25,< 1.25,≤ 2.5,< 1.25,< 1.25,< 1.25,< 1.25,> 160,< 1.25,≤ 160,≤ 10,< 1.25,< 1.25,> 160,> 160,< 1.25,< 1.25,> 160,> 160,> 160,–,–,–,–,–,–,–
